Test results taken from patent US20200000825A1, “METHODS AND COMPOSITIONS FOR TREATING AND PREVENTING VIRAL INFECTIONS” (ENTERIN LABORATORIES, INC., priority 2009, published 2020).

Tested on: HUVECs
Assay: Thrombin induced stress fiber formation in endothelial cells
Format: cell-based, human
Details: aminosterol 20 μM, thrombin 20 ng/ml, 2 hours
Procedure: The basic methods have been published (Williams, […] et al. 2001). HUVECs were grown on fibronectin-covered coverslips in EGM medium. […] Following a rinse, the cells were exposed to a 1:400 dilution of an FITC-goat antimurine antibody and 250 ng/ml TRITC phalloidin. The stained coverslips were visualized by fluorescence microscopy.

| Compound | Disruption of thrombin induced stress fiber formation |
| --- | --- |
| CC(C)[C@@H](CC[C@@H](C)[C@H]1CC[C@H]2[C@@H]3[C@@H](O)C[C@H]4C[C@@H](NCCCNCCCCN)CC[C@]4(C)[C@H]3CC[C@]12C)OS(=O)(=O)O [Compound A] | disrupt thrombin induced stress fiber formation and inhibited thrombin-induced stress fiber formation and Yes |
| CC(C)[C@@H](CC[C@@H](C)[C@H]1CC[C@H]2[C@@H]3[C@H](O)C[C@H]4C[C@H](NCCCNCCCCN)CC[C@]4(C)[C@H]3CC[C@]12C)OS(=O)(=O)O [Compound B] | disrupt thrombin induced stress fiber formation and inhibited thrombin-induced stress fiber formation and Yes |
| CC(C)[C@H](CC[C@@H](C)[C@H]1CC[C@H]2[C@@H]3[C@H](O)C[C@H]4C[C@@H](NCCCNCCCCN)CC[C@]4(C)[C@H]3CC[C@]12C)OS(=O)(=O)O [Compound C] | disrupt thrombin induced stress fiber formation and inhibited thrombin-induced stress fiber formation and Yes |
| CC(C)[C@@H](CC[C@H](C)[C@H]1CC[C@H]2[C@@H]3[C@H](O)C[C@H]4C[C@@H](NCCCNCCCCN)CC[C@]4(C)[C@H]3CC[C@]12C)OS(=O)(=O)O [Compound D] | not observed and inactive and No |
| CC(C)[C@@H](CC[C@@H](C)[C@H]1CC[C@H]2[C@@H]3[C@H](O)C[C@H]4CC(N)CC[C@]4(C)[C@H]3CC[C@]12C)OS(=O)(=O)O (stereo partly drawn) [Compound E] | not observed and No |
| CC(C)[C@@H](CC[C@@H](C)[C@H]1CC[C@H]2[C@@H]3[C@H](O)C[C@H]4C[C@@H](NCCCOCCCN)CC[C@]4(C)[C@H]3CC[C@]12C)OS(=O)(=O)O [Compound F] | not observed and No |
